Consider one compound from ChEMBL document CHEMBL5537154, “Smart glypican-3-targeting peptide-chlorin e6 conjugates for targeted photodynamic therapy of hepatocellular carcinoma” (Eur J Med Chem, 2024).

The subject of series [1] is HepG2. The experiment in a line: Induction of apoptosis in human HepG2 cells assessed as early apoptotic cells under dark condition at 2.5 uM incubated for 24 hrs by Annexin V-FITC/PI staining based flow cytometry relative to control. Type of series: functional. Background: In flow cytometry, cells or beads pass a laser one at a time.
The subject of a further series is MCF7. The experiment in a line: Antitumor activity against human MCF7 cells xenografted in BALB/C nude mouse model assessed as decrease in tumor growth at 1 to 2 uM/kg, iv administered every two days for 21 days along with 250 mW/cm2 light irradiation at 660 nm for 10 mins at 1 hr post-compound administration. Type of series: functional, organism-based. The settings on record: dose 1-2 µM/Kg, time 505.166 hrs. (In general: In xenograft studies the graft and the host belong to different species.)

A short description of series [2]: Toxicity in BALB/C nude mouse model xenografted with human HepG2 cells assessed as damage in lung at 1 to 2 uM/kg, iv administered every two days for 21 days along with 250 mW/cm2 light irradiation at 660 nm for 10 mins at 1 hr post-compound administration by H and E staining based analysis. Type of series: organism-based. As to conditions: in vivo, 505.17 h, dose 1-2 µM/Kg, time 505.166 hrs.

Series [3] concerns HepG2. Description: Induction of apoptosis in human HepG2 cells assessed as necrotic cells at 2.5 uM incubated for 24 hrs followed by 10 J/cm2 of light irradiation at 660 nm measured after 24 hrs by Annexin V-FITC/PI staining based flow cytometry relative to control. As to conditions: time 48 hrs. Type of series: functional.
The subject of series [4] is HepG2. Description: Induction of ROS generation in human HepG2 cells at 10 uM preincubated for 24 hrs followed by DCFH-DA probe addition and further incubated under dark condition for 20 mins prior and 20 mins post- light irradiation of 10 J/cm2 at 660 nm by flow cytometry. Type of series: functional, cell-based. The settings on record: time 24.66 hrs.

Active and inactive are the calls of the source. No cut-off for these calls is given here. Peptide text beside a SMILES is read from it.

As for `C=Cc1c(C)c2cc3nc(c(CC(=O)O)c4[nH]c(cc5nc(cc1[nH]2)C(C)=C5CC)c(C)c4C(=O)NCCCC(=O)N[C@@H](CC(=O)O)C(=O)N[C@@H](Cc1cnc[nH]1)C(=O)N[C@@H](CC(C)C)C(=O)N[C@@H](C)C(=O)N[C@@H](CO)C(=O)N[C@@H](CC(C)C)C(=O)N[C@@H](Cc1c[nH]c2ccccc12)C(=O)N[C@@H](Cc1c[nH]c2ccccc12)C(=O)NCC(=O)N[C@H](C(=O)N[C@@H](CCC(=O)O)C(=O)N[C@@H](CC(C)C)C(=O)O)[C@@H](C)O)[C@@H](CCC(=O)O)[C@@H]3C` (HELM PEPTIDE1{[C=Cc1c(C)c2cc3nc(c(CC(=O)O)c4[nH]c(cc5nc(cc1[nH]2)C(C)=C5CC)c(C)c4C(=O)[*:2])[C@@H](CCC(=O)O)[C@@H]3C].[O=C(CCCN[*:1])[*:2]].D.H.L.A.S.L.W.W.G.T.E.L}$$$$V2.0), the Activity in the series on HepG2 [1] is reported as 2.7%; in series [2], “Non-Toxic”; with HepG2 [3] it was 74%. Moreover, the outcome with MCF7 and with HepG2 [4] was Active.
